1 molecule from patent US20120021434A1, “METHOD FOR TREATING B CELL REGULATED AUTOIMMUNE DISORDERS” (Synta Pharmaceuticals Corp., priority 2005, published 2012) can be followed below.

Common to all, as to type: cell-based
One assay deals with p105/p50. Nature of the assay: LPS/IFNγ-induced phosphorylation of p105/p50 in THP1 cells (immunoblot). The settings on record: THP1, 100 nM, residues Ser-927 and Ser-933. On the procedure:
(§1) In this study, we examined the effect of Compound 50 on LPS-induced phosphorylation of the NF-κB members p65 and p105/p50. THP1 monocytic cells were stimulated with IFNγ plus LPS in the presence or absence of 100 nM Compound 50 (30 min, 1 h and 3 h) and whole-cell extracts were immunoblotted using anti-phospho p65 and p105/p50 antibodies to detect the phosphorylated forms of these proteins. […] LPS/IFNγ induced phosphorylation of p65 as early as 30 minutes on residues Ser-276, Ser-468 and […]. Compound 50 had no effect on LPS/IFNγ induced phosphorylation at these sites. […] LPS/IFNγ induced phosphorylation of p105 as early as 30 minutes on residues Ser-927 and Ser-933. Compound 50 had no effect on LPS/IFNγ induced phosphorylation at these sites.
(In general: Immunoblotting shows a protein as a band on a membrane.)

The next assay has as its system p65. Nature of the assay: LPS/IFNγ-induced phosphorylation of p65 in THP1 cells (immunoblot). The following applies: THP1, 100 nM, residues Ser-276, Ser-468 and Ser-927. The method, then: as §1
The next assay concerns NF-κB p50. Nature of the assay: Kinetics of p50 nuclear translocation in LPS-stimulated THP1 cells (immunoblot, densitometry). The settings on record: 100 nM. On the procedure:
(§2) Compound 50 impairs nuclear accumulation of c-Rel and slightly reduces nuclear accumulation of p50. We examined the nuclear translocation kinetics of NF-κB family members in LPS stimulated cells treated with Compound 50. THP1 cells were stimulated with LPS in either the presence or absence of 100 nM Compound 50, and the distribution of the NF-κB Rel family members was determined by immunoblotting nuclear (n.p.) extracts collected at 5 min, 15 min, 30 min, 1 h, 3 h and 6 h post-treatment. In response to LPS stimulation, p50 translocated into the nucleus as early as 5 minutes post-stimulation and accumulates as time goes on (FIG. 4, immunoblots and FIG. 5 densitometry). […] The experiment examining p65 nuclear translocation is shown in FIG. 6 (immunoblots) and FIG. 7 (densitometry). In LPS stimulated cells, p65 translocated into the nucleus as early as 5 minutes post-stimulation and accumulated to maximum levels at 15-30 minutes post-stimulation. Treatment of LPS-stimulated cells with Compound 50 had no effect on the kinetics of p65 nuclear entry.

Another assay concerns NF-κB p65. The assay can be described thus: Kinetics of p65 nuclear translocation in LPS-stimulated THP1 cells (immunoblot, densitometry). The settings on record: 100 nM. On the procedure:
as §2

A further assay concerns IKKβ. The assay can be described thus: Phosphorylation of IKKβ in IFNγ/LPS-stimulated THP-1 cells (immunoblot). The settings on record: THP-1 whole cell extracts, IFNγ/LPS 5 min to 1 hr, 500 nM. On the procedure: The whole cell extracts were prepared using Cell Lysis Buffer (Cell Signaling, Beverly, Mass., USA) according to the manufacture's instruction.
The phosphorylation of IKK is an early step in NF-κB activation. To determine whether Compound 50 inhibits the activation of the IKK complex, the level of phosphorylated IKKβ was investigated in drug-treated, LPS-stimulated cells. Whole cell extracts were prepared from THP-1 cells that had been stimulated with IFNγ/LPS for 5 min, 15 min 30 min and 1 hr in the either the absence or presence of 500 nM Compound 50. Phosphorylated IKKβ was determined by immunoblot analysis using an anti-phospho IKKβ antibody. […] Compound 50 treatment had no effect on the induction of phosphorylated IKKβ.

Another assay has as its system IL-2. Nature of the assay: Induction of IL-2 in PMA+ionomycin stimulated Jurkat T cells. The settings on record: previously shown.

With `Cc1cccc(/C=N/Nc2cc(N3CCOCC3)nc(OCCc3ccccn3)n2)c1` [Compound 50, N-(3-Methyl-benzylidene)-N′-[6-morpholin-4-yl-2-(2-pyridin-2-yl-ethoxy)-pyrimidin-4-yl]-hydrazine], the “LPS/IFNγ induced phosphorylation of p105” value in the assay on p105/p50 was “no effect”. The “LPS/IFNγ induced phosphorylation of p65” value in the assay with p65 is listed as “no effect”. Also, the “kinetics of p50 nuclear entry” value with NF-κB p50 (5 minutes to 1 hr post-stimulation) was “no effect”. Further, the “nuclear p50 protein levels” value with NF-κB p50 (3 hours) is recorded as “small decrease”. Also, the “kinetics of p65 nuclear entry” value with NF-κB p65 is given as “no effect”. The “level of nuclear p65 relative to untreated cells” value in the assay with NF-κB p65 (6 hours) is listed as “small increase”. In the assay with IKKβ, the “induction of phosphorylated IKKβ” value is “no effect”. Moreover, in the assay with IL-2, the “induction of the c-Rel dependent cytokine IL-2” value is “impairs”.
